Measured values from patent US20180289678A1, “PHARMACEUTICAL COMPOSITION, PHARMACEUTICAL DOSAGE FORM, PROCESS FOR THEIR PREPARATION, METHODS FOR TREATING AND USES THEREOF” (Boehringer Ingelheim International GmbH, priority 2009, published 2018).
Where two headings read alike, the source gives them in different places.

Test: Study .5: single dose study in healthy Japanese volunteers, pharmacokinetic parameters
Format: in vivo, human
Settings: Study .5, fasted
Description: 5. Pharmacokinetic Parameters
The pharmacokinetic parameters of pharmaceutical compositions and pharmaceutical dosage forms are assessed in healthy volunteer and patient populations. In the studies shown below, the participants fasted on the day of sampling, unless as otherwise stated (see for example study .3). The active substance in the studies below is the compound (I.9), preferably in the crystalline form (I.9X), and the dose of active ingredient is indicated in mg.
For the quantification of plasma concentrations of the active ingredient, 2.7 mL of blood was collected and transferred into an EDTA (ethylendiaminetetraacetic acid)-anticoagulant blood drawing tube. The EDTA-anticoagulated blood samples were centrifuged immediately after collection. Centrifugation lasted for about 10 minutes (at about 2,000×gf to 4,000×gf) at 4-8° C. or within 30 minutes while stored on ice. Concentrations of active substance in EDTA human plasma samples were quantitated using a HPLC/MS/MS method. The assay method comprised a solid phase supported liquid-liquid extraction of human plasma coupled with HPLC/MS/MS determination of the extracted samples. The HPLC/MS/MS assay was validated for the range of 1.11 to 1110 nM in human plasma.
Study .5: Single dose study in a healthy volunteer population of N=48 (Japanese volunteers). Healthy volunteers were administered tablets as described in Example 11 (section Examples of formulations).
AUC0-inf:area under the concentration-time curve of the analyte in plasma over the time interval from 0 extrapolated to infinity.
Cmax: maximum concentration of the analyte in plasma.
Tmax: time from dosing to maximum concentration.

AUC0-inf Max (5 mg single dose): 1.31 µM·h
AUC0-inf Min (5 mg single dose): 1000 nmol·h/L
AUC0-inf,norm Max (5 mg single dose): 262 nmol·h/L/mg
AUC0-inf,norm Median (5 mg single dose): 230 nmol·h/L/mg
AUC0-inf,norm Min (5 mg single dose): 200 nmol·h/L/mg
AUC0-inf,norm gMean (5 mg single dose): 228 nmol·h/L/mg
Cmax,norm Max (5 mg single dose): 46 nmol/L/mg
Cmax,norm Median (5 mg single dose): 31 nmol/L/mg
Cmax,norm Min (5 mg single dose): 25 nmol/L/mg
Cmax,norm gMean (5 mg single dose): 32 nmol/L/mg
tmax Min (5 mg single dose): 0.750 h
Cmax (5 mg single dose, read-out: Cmax Max): 230 nM
Cmax (5 mg single dose, read-out: Cmax Min): 123 nM
AUC0-inf Max (10 mg single dose): 3.19 µM·h
AUC0-inf Min (10 mg single dose): 2340 nmol·h/L
AUC0-inf,norm Max (10 mg single dose): 319 nmol·h/L/mg
AUC0-inf,norm Median (10 mg single dose): 264 nmol·h/L/mg
AUC0-inf,norm Min (10 mg single dose): 234 nmol·h/L/mg
AUC0-inf,norm gMean (10 mg single dose): 266 nmol·h/L/mg
Cmax,norm Max (10 mg single dose): 45 nmol/L/mg
Cmax,norm Median (10 mg single dose): 40 nmol/L/mg
Cmax,norm Min (10 mg single dose): 24 nmol/L/mg
Cmax,norm gMean (10 mg single dose): 37 nmol/L/mg
tmax Max (10 mg single dose): 3.00 h
tmax Min (10 mg single dose): 1.00 h
Cmax (10 mg single dose, read-out: Cmax Max): 454 nM
Cmax (10 mg single dose, read-out: Cmax Min): 242 nM
AUC0-inf Max (25 mg single dose): 7.15 µM·h
AUC0-inf Min (25 mg single dose): 5040 nmol·h/L
AUC0-inf,norm Max (25 mg single dose): 286 nmol·h/L/mg
AUC0-inf,norm Median (25 mg single dose): 254 nmol·h/L/mg
AUC0-inf,norm Min (25 mg single dose): 202 nmol·h/L/mg
AUC0-inf,norm gMean (25 mg single dose): 245 nmol·h/L/mg
Cmax,norm Max (25 mg single dose): 32 nmol/L/mg
Cmax,norm Median (25 mg single dose): 26 nmol/L/mg
Cmax,norm Min (25 mg single dose): 24 nmol/L/mg
Cmax,norm gMean (25 mg single dose): 26 nmol/L/mg
tmax Max (25 mg single dose): 4.00 h
tmax Min (25 mg single dose): 1.00 h
Cmax (25 mg single dose, read-out: Cmax Max): 790 nM
Cmax (25 mg single dose, read-out: Cmax Min): 605 nM
AUC(0-inf) (human, plasma, oral, 5 mg, 5 mg single dose, read-out: AUC0-inf Mean): 1.14 µM·h
AUC(0-inf) (human, plasma, oral, 5 mg, 5 mg single dose, read-out: AUC0-inf Median): 1.15 µM·h
AUC(0-inf) (human, plasma, oral, 5 mg, 5 mg single dose, read-out: AUC0-inf gMean): 1.14 µM·h
Cmax (human, plasma, oral, 5 mg, 5 mg single dose, read-out: Cmax Mean): 166 nM
Cmax (human, plasma, oral, 5 mg, 5 mg single dose, read-out: Cmax Median): 153 nM
Cmax (human, plasma, oral, 5 mg, 5 mg single dose, read-out: Cmax gMean): 161 nM
Tmax (human, plasma, oral, 5 mg, 5 mg single dose, read-out: tmax Mean): 1.63 h
Tmax (human, plasma, oral, 5 mg, 5 mg single dose, read-out: tmax Median): 2 h
Tmax (human, plasma, oral, 5 mg, 5 mg single dose, read-out: tmax gMean): 1.51 h
AUC(0-inf) (human, plasma, oral, 10 mg, 10 mg single dose, read-out: AUC0-inf Mean): 2.67 µM·h
AUC(0-inf) (human, plasma, oral, 10 mg, 10 mg single dose, read-out: AUC0-inf Median): 2.64 µM·h
AUC(0-inf) (human, plasma, oral, 10 mg, 10 mg single dose, read-out: AUC0-inf gMean): 2.66 µM·h
Cmax (human, plasma, oral, 10 mg, 10 mg single dose, read-out: Cmax Mean): 379 nM
Cmax (human, plasma, oral, 10 mg, 10 mg single dose, read-out: Cmax Median): 398 nM
Cmax (human, plasma, oral, 10 mg, 10 mg single dose, read-out: Cmax gMean): 372 nM
Tmax (human, plasma, oral, 10 mg, 10 mg single dose, read-out: tmax Mean): 1.67 h
Tmax (human, plasma, oral, 10 mg, 10 mg single dose, read-out: tmax Median): 1.5 h
Tmax (human, plasma, oral, 10 mg, 10 mg single dose, read-out: tmax gMean): 1.54 h
AUC(0-inf) (human, plasma, oral, 25 mg, 25 mg single dose, read-out: AUC0-inf Mean): 6.18 µM·h
AUC(0-inf) (human, plasma, oral, 25 mg, 25 mg single dose, read-out: AUC0-inf Median): 6.34 µM·h
AUC(0-inf) (human, plasma, oral, 25 mg, 25 mg single dose, read-out: AUC0-inf gMean): 6.13 µM·h
Cmax (human, plasma, oral, 25 mg, 25 mg single dose, read-out: Cmax Mean): 661 nM
Cmax (human, plasma, oral, 25 mg, 25 mg single dose, read-out: Cmax Median): 643 nM
Cmax (human, plasma, oral, 25 mg, 25 mg single dose, read-out: Cmax gMean): 658 nM
Tmax (human, plasma, oral, 25 mg, 25 mg single dose, read-out: tmax Mean): 2.33 h
Tmax (human, plasma, oral, 25 mg, 25 mg single dose, read-out: tmax Median): 2 h
Tmax (human, plasma, oral, 25 mg, 25 mg single dose, read-out: tmax gMean): 2.14 h
Structure (SMILES): OC[C@H]1O[C@@H](c2ccc(Cl)c(Cc3ccc(O[C@H]4CCOC4)cc3)c2)[C@H](O)[C@@H](O)[C@@H]1O [Compound (I.9), 1-chloro-4-(β-D-glucopyranos-1-yl)-2-[4-((S)-tetrahydrofuran-3-yloxy)-benzyl]-benzene]
